Assays:
Design in all cases: scale not given: the % may be the effect or the level left
[1] = target: Wee1-like protein kinase (Homo sapiens) (UniProt P30291); assay: Inhibition of DNA-tagged human WEE1 assessed as percent of control at 50000 nM by qPCR analysis relative to control
[2] = target: Serine/threonine-protein kinase SIK2 (Homo sapiens) (UniProt Q9H0K1); assay: Inhibition of DNA-tagged human SIK2 assessed as percent of control at 50000 nM by qPCR analysis relative to control
[3] = target: Serine/threonine-protein kinase MARK1 (Homo sapiens) (UniProt Q9P0L2); assay: Inhibition of DNA-tagged human MARK1 assessed as percent of control at 50000 nM by qPCR analysis relative to control
[4] = target: Serine/threonine-protein kinase NIM1 (Homo sapiens) (UniProt Q8IY84); assay: Inhibition of DNA-tagged human NIM1 assessed as percent of control at 50000 nM by qPCR analysis relative to control
[5] = target: Serine/threonine-protein kinase Chk1 (Homo sapiens) (UniProt O14757); assay: Inhibition of DNA-tagged human CHEK1 assessed as percent of control at 50000 nM by qPCR analysis relative to control
[6] = target: NT-3 growth factor receptor (Homo sapiens) (UniProt Q16288); assay: Inhibition of DNA-tagged human TRKC assessed as percent of control at 50000 nM by qPCR analysis relative to control
[7] = target: Ribosomal protein S6 kinase alpha-5 (Homo sapiens) (UniProt O75582); assay: Inhibition of DNA-tagged human C-terminal RPS6KA5 kinase domain 2 assessed as percent of control at 50000 nM by qPCR analysis relative to control
[8] = tested on: Epidermal growth factor receptor (Homo sapiens), P00533 [L858R]; assay: Inhibition of DNA-tagged human EGFR L858R mutant assessed as percent of control at 50000 nM by qPCR analysis relative to control
[9] = target: STE20-like serine/threonine-protein kinase (Homo sapiens) (UniProt Q9H2G2); assay: Inhibition of DNA-tagged human SLK assessed as percent of control at 50000 nM by qPCR analysis relative to control
[10] = target: Serine/threonine-protein kinase Nek4 (Homo sapiens) (UniProt P51957); assay: Inhibition of DNA-tagged human NEK4 assessed as percent of control at 50000 nM by qPCR analysis relative to control
[11] = target: Bone morphogenetic protein receptor type-1A (Homo sapiens) (UniProt P36894); assay: Inhibition of DNA-tagged human BMPR1A assessed as percent of control at 50000 nM by qPCR analysis relative to control
[12] = target: Ephrin type-B receptor 1 (Homo sapiens) (UniProt P54762); assay: Inhibition of DNA-tagged human EPHB1 assessed as percent of control at 50000 nM by qPCR analysis relative to control
[13] = target: Mitogen-activated protein kinase 4 (Homo sapiens) (UniProt P31152); assay: Inhibition of DNA-tagged human ERK4 assessed as percent of control at 50000 nM by qPCR analysis relative to control
[14] = target: Glycogen synthase kinase-3 beta (Homo sapiens) (UniProt P49841); assay: Inhibition of DNA-tagged human GSK3B assessed as percent of control at 50000 nM by qPCR analysis relative to control
[15] = target: Dual specificity protein kinase CLK4 (Homo sapiens) (UniProt Q9HAZ1); assay: Inhibition of DNA-tagged human CLK4 assessed as percent of control at 50000 nM by qPCR analysis relative to control
[16] = target: Death-associated protein kinase 2 (Homo sapiens) (UniProt Q9UIK4); assay: Inhibition of DNA-tagged human DAPK2 assessed as percent of control at 50000 nM by qPCR analysis relative to control
[17] = target: Receptor-type tyrosine-protein kinase FLT3 (Homo sapiens) (UniProt P36888); assay: Inhibition of DNA-tagged human FLT3 assessed as percent of control at 50000 nM by qPCR analysis relative to control
[18] = target: Insulin receptor-related protein (Homo sapiens) (UniProt P14616); assay: Inhibition of DNA-tagged human INSRR assessed as percent of control at 50000 nM by qPCR analysis relative to control
Insulin receptor-related protein (Homo sapiens), sequence (P14616 27-742 limits assumed): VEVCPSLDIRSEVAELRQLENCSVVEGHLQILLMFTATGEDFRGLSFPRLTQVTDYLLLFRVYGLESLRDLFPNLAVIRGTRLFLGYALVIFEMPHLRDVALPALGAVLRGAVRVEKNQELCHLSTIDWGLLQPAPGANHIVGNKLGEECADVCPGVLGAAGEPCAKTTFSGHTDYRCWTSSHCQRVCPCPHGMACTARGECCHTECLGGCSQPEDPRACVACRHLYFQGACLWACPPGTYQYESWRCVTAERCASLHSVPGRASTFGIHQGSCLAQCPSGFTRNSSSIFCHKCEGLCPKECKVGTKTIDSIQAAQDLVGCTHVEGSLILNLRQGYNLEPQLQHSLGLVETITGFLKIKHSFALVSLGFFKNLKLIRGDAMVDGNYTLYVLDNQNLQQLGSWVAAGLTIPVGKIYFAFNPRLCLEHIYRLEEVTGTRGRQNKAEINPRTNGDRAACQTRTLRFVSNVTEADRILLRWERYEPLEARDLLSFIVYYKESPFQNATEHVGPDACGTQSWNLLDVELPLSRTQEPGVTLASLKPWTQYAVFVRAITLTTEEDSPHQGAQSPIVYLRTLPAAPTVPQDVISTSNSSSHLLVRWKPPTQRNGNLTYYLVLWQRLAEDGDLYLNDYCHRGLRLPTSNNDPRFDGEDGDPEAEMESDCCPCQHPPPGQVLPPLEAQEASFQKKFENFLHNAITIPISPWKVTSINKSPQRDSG
Insulin receptor-related protein (Homo sapiens), sequence (P14616 747-1297 limits assumed): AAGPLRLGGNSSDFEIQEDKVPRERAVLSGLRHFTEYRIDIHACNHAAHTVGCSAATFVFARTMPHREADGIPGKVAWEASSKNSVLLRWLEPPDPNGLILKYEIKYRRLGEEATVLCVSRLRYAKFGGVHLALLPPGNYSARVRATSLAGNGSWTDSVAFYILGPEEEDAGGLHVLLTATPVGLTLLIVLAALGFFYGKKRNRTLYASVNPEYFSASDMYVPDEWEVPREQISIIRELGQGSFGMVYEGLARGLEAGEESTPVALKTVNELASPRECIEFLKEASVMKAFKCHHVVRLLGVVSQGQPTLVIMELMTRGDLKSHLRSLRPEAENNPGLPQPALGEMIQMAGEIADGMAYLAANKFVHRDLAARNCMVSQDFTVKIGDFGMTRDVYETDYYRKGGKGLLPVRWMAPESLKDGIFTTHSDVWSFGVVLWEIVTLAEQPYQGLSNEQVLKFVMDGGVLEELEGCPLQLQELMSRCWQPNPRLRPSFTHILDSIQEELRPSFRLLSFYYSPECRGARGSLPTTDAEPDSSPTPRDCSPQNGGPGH

[19] = target: Dual specificity mitogen-activated protein kinase kinase 4 (Homo sapiens) (UniProt P45985); assay: Inhibition of DNA-tagged human MEK4 assessed as percent of control at 50000 nM by qPCR analysis relative to control
[20] = target: Serine/threonine-protein kinase BRSK1 (Homo sapiens) (UniProt Q8TDC3); assay: Inhibition of DNA-tagged human BRSK1 assessed as percent of control at 50000 nM by qPCR analysis relative to control
[21] = target: Serine/threonine-protein kinase PAK 5 (Homo sapiens) (UniProt Q9P286); assay: Inhibition of DNA-tagged human PAK7 assessed as percent of control at 50000 nM by qPCR analysis relative to control
Serine/threonine-protein kinase PAK 5 (Homo sapiens), sequence (Q9P286 whole entry, looked up): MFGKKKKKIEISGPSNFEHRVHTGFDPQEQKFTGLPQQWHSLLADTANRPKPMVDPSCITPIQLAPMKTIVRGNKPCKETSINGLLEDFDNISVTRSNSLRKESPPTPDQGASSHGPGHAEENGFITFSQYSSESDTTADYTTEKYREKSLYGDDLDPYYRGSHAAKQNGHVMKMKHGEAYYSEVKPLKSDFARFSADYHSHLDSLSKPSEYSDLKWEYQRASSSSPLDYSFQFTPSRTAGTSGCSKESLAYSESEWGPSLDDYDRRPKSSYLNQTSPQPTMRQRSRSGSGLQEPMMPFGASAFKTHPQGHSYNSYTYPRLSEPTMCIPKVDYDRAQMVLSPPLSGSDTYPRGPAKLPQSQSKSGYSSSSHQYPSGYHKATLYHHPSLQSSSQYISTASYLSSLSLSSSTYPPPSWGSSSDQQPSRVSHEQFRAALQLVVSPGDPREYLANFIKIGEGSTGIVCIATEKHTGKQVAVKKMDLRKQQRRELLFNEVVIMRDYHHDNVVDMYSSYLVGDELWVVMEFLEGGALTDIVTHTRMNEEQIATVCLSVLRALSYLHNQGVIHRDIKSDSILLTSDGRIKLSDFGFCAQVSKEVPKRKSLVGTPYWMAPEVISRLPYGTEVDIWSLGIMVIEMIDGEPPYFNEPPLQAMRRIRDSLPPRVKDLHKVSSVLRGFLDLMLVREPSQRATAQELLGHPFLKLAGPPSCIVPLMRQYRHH

[22] = target: Serine/threonine-protein kinase PknB (Mycobacterium tuberculosis) (UniProt P9WI81); assay: Inhibition of DNA-tagged Mycobacterium tuberculosis PKNB assessed as percent of control at 50000 nM by qPCR analysis relative to control
[23] = target: Glycogen synthase kinase-3 alpha (Homo sapiens) (UniProt P49840); assay: Inhibition of DNA-tagged human GSK3A assessed as percent of control at 50000 nM by qPCR analysis relative to control
Glycogen synthase kinase-3 alpha (Homo sapiens), sequence (P49840 2-483 limits assumed): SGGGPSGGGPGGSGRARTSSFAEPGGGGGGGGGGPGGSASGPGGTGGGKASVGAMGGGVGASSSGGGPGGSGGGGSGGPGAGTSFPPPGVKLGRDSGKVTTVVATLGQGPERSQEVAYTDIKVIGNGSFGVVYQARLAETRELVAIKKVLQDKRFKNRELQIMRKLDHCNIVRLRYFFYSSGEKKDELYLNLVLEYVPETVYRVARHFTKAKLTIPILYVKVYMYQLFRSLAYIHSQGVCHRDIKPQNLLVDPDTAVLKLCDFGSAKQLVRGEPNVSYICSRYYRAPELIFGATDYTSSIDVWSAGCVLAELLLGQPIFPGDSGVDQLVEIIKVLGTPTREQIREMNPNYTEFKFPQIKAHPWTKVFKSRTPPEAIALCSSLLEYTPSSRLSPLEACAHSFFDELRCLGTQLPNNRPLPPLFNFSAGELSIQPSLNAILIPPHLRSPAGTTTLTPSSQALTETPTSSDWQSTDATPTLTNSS

[24] = target: Discoidin domain-containing receptor 2 (Homo sapiens) (UniProt Q16832); assay: Inhibition of DNA-tagged human DDR2 assessed as percent of control at 50000 nM by qPCR analysis relative to control
[25] = target: Cytoplasmic tyrosine-protein kinase BMX (Homo sapiens) (UniProt P51813); assay: Inhibition of DNA-tagged human BMX assessed as percent of control at 50000 nM by qPCR analysis relative to control
[26] = tested on: Mast/stem cell growth factor receptor Kit (Homo sapiens), P10721 [L576P]; assay: Inhibition of DNA-tagged human KIT L576P mutant assessed as percent of control at 50000 nM by qPCR analysis relative to control
[27] = target: Serine/threonine-protein kinase B-raf (Homo sapiens) (UniProt P15056); assay: Inhibition of DNA-tagged human BRAF assessed as percent of control at 50000 nM by qPCR analysis relative to control
Serine/threonine-protein kinase B-raf (Homo sapiens), sequence (P15056 whole entry, the tested form may be a part): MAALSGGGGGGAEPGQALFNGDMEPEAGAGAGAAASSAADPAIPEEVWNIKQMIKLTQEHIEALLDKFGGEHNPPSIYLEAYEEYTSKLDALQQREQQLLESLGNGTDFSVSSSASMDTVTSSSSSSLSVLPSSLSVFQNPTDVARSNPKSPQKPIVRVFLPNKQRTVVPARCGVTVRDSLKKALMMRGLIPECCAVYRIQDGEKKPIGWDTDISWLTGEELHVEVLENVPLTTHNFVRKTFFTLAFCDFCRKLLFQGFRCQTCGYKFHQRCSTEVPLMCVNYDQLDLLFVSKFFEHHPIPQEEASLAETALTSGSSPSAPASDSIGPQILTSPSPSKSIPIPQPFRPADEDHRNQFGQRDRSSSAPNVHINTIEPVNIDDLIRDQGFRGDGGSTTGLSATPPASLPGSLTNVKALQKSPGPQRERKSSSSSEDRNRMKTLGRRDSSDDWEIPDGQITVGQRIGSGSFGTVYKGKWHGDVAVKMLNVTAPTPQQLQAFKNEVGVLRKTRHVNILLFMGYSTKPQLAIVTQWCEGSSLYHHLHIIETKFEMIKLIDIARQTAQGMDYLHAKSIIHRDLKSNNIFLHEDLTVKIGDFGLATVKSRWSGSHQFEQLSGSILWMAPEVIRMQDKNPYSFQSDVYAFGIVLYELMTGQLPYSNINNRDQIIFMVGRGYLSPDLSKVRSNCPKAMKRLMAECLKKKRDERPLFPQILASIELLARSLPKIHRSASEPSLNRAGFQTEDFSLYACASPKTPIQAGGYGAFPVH

[28] = target: Epithelial discoidin domain-containing receptor 1 (Homo sapiens) (UniProt Q08345); assay: Inhibition of DNA-tagged human DDR1 assessed as percent of control at 50000 nM by qPCR analysis relative to control
Epithelial discoidin domain-containing receptor 1 (Homo sapiens), sequence (Q08345 whole entry, the tested form may be a part): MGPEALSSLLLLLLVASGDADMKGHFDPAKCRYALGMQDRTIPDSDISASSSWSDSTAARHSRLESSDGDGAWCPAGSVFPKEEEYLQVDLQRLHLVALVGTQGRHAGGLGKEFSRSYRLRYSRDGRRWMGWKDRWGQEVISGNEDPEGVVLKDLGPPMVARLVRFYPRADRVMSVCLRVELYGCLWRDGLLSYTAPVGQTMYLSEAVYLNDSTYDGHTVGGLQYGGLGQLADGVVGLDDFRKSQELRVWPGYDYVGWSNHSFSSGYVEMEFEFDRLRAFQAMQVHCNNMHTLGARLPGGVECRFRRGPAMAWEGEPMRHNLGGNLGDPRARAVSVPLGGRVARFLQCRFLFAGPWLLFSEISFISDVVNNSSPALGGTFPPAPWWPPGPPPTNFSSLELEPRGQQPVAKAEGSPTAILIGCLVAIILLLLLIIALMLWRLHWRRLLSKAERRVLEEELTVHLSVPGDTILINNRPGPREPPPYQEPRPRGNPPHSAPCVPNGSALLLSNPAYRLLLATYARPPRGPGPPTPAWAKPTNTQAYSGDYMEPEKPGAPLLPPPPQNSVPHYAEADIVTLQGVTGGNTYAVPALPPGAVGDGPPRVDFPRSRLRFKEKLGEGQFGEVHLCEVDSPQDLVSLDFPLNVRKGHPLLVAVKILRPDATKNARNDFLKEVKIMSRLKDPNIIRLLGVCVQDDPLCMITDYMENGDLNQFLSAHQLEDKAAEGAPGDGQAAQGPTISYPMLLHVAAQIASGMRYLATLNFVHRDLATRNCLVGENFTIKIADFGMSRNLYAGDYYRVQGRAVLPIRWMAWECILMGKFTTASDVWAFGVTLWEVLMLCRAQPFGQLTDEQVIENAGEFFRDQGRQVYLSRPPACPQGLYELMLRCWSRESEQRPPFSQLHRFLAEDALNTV

[29] = target: Calcium-dependent protein kinase 1 (Plasmodium falciparum) (UniProt P62344); assay: Inhibition of DNA-tagged Plasmodium falciparum CDPK1 assessed as percent of control at 50000 nM by qPCR analysis relative to control
[30] = target: cGMP-dependent protein kinase 2 (Homo sapiens) (UniProt Q13237); assay: Inhibition of DNA-tagged human PRKG2 assessed as percent of control at 50000 nM by qPCR analysis relative to control

Wee1-like protein kinase (Homo sapiens), sequence (P30291 whole entry, looked up): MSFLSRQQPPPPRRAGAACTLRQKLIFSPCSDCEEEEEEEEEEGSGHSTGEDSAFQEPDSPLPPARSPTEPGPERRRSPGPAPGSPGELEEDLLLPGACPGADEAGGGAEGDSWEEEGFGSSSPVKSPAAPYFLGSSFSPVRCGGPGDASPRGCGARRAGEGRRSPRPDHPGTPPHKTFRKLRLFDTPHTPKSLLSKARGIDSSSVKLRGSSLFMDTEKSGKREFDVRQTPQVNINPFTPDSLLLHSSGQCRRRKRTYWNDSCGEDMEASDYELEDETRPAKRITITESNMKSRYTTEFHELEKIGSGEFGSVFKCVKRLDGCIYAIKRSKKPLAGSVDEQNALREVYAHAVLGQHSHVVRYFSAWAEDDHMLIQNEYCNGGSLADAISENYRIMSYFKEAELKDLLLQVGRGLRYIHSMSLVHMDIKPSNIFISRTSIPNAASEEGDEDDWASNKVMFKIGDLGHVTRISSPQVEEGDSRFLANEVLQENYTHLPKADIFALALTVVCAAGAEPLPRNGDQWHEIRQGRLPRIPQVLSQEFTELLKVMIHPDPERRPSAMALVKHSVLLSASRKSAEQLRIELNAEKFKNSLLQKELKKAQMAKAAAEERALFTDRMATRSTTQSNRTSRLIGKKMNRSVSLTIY

CN1C(=O)/C(=C2/C(=O)Nc3ccccc32)c2ccccc21
Activity [1]: 91%
Activity [2]: 95%
Activity [3]: 92%
Activity [4]: 86%
Activity [5]: 100%
Activity [6]: 66%
Activity [7]: 100%
Activity [8]: 89%
Activity [9]: 100%
Activity [10]: 86%
Activity [11]: 100%
Activity [12]: 97%
Activity [13]: 86%
Activity [14]: 90%
Activity [15]: 100%
Activity [16]: 85%
Activity [17]: 79%
Activity [18]: 84%
Activity [19]: 100%
Activity [20]: 94%
Activity [21]: 98%
Activity [22]: 100%
Activity [23]: 85%
Activity [24]: 86%
Activity [25]: 89%
Activity [26]: 98%
Activity [27]: 84%
Activity [28]: 84%
Activity [29]: 87%
Activity [30]: 94%

Source: ChEMBL document CHEMBL4804284
